Measurements: US10947254B2, “Methods for treating ulcerative colitis using 3-((1R,3s,5S)-3-((7-((5-methyl-1H-pyrazol-3-yl)amino)-1,6-naphthyridin-5-yl)amino)-8-azabicyclo[3.2.1]octan-8-yl)propanenitrile” (priority 2015, dated 2021)

Tests used:
[1] = test system: oxazolone-induced colitis; test: Mouse model of oxazolone-induced colitis; type: in vivo, BALB/C mice; settings: mice
Experimental: Assay 7: Mouse Model of Oxazalone-Induced Colitis
Oxazolone-induced colitis is an experimental model that has a histological resemblance to human ulcerative colitis (Heller et al. Immunology, 2002, 17, 629-638). Adult BALB/C mice from Harlan were used in the assay. On day 1, animals were lightly anesthetized with isoflurane and the hairs between the shoulder were carefully removed before oxazolone (4%, 150 μL, 4:1 acetone:olive oil formulation) or vehicle solution was slowly applied for skin sensitization. Seven days after skin sensitization, the mice were fasted overnight, anesthetized with isoflurane inhalation, and a 1 mL syringe equipped with a 3.5-F catheter, filled with oxazolone solution, was inserted carefully about 4 cm into the colon of the mouse. Following insertion, 50 μL of the oxazolone solution (1%, 1:1 ethanol:water formulation) was injected very slowly (over 30 sec using an injection pump) into the colon. The catheter was removed and the mice were held vertically (head down) for 2 min to ensure that the entire oxazolone solution remained inside the colon. Drug treatment (PO, BID or TID) or vehicle was initiated a day prior to the oxazolone intrarectal (IR) challenge. Two-day post oxazolone intrarectal challenge, the Disease Activity Index (DAI) was assessed by treatment-blinded experimenters for each mouse according to the criteria score: stool consistency score (0, normal; 2, loose; 4, diarrhea), gross bleeding score (0, absence; 2, blood tinged; 4, presence), and weight loss score (0, none; 1, 1%-5%; 2, 5%-10%; 3, 10%-20%; 4, more than 20%); DAI=average of (stool consistency score+gross bleeding score+weight loss score).
Selected compounds of the invention were tested in the assay. Efficacy in the model is evidenced by a decrease in DAI score as compared with the score from vehicle treated animals.

[2] = test system: splenic NK, B and T cells; test: Immunosuppression effects in mouse splenic natural killer (NK) cells; type: in vivo, Balb/C mice; settings: mice, three days
Experimental: Adult male Balb/C mice (12-14 weeks of age) from Harlan were used for the study. […] Spleens were harvested 1 or 2 h post last dose and crushed immediately for cell subtype staining. Prior to fixation, fluorophore-labelled antibodies for CD19 (FITC; B cells), CD3e (PE; pan T cells) and DX5 (APC; NK cells) were incubated with splenocyte samples from each animal to allow for simultaneous, multiple subtype % analysis on the flow cytometer. The number of total spleen cells for each animal was measured by Scepter™ 2.0 Handheld Automated Cell Counter. The absolute number of lymphocyte subtype population (e.g., splenic B, T and NK cells) was calculated from the percentage of each subtype times total spleen cells for each animal. A one way ANOVA, with Dunnett's post hoc test, was used to compare the splenic lymphocytes number of the vehicle and test compound groups. The a level was set at p<0.05. Data were presented as the mean±SEM for each group.

[3] = First in human study of safety, tolerability and pharmacokinetics in healthy subjects; type: in vivo; settings: by comparison to other orally administered compounds
Experimental: Assay 9: First in Human Study to Evaluate the Safety, Tolerability and Pharmacokinetics in Healthy Subjects
The compound of Example 1 was evaluated in a double-blinded, randomized, placebo-controlled, single ascending dose (SAD) and multiple ascending dose (MAD) study of safety, tolerability, and pharmacokinetics in healthy subjects. Pharmacokinetic samples were collected up to 72 hours post the final dose in both the SAD study (after the first dose) and MAD study (after 14 days of once-daily dosing). The SAD study enrolled 5 cohorts and the MAD study enrolled 4 cohorts totaling 72 subjects, of which 71 completed the dosing period.
Plasma pharmacokinetic (PK) parameters were determined by non-compartmental analysis using WinNonLin Version 6.4.0 (Pharsight, St Louis, Mo.). The plasma PK parameter presented here is:
Cmax: Maximum Concentration in Plasma

[4] = Pharmacokinetics in plasma and the GI tract in rats; type: in vivo, Sprague Dawley rats; settings: oral dosing in preclinical species
Experimental: Assay 6: Pharmacokinetics in Plasma and the GI Tract in Rats and Dogs A test compound was dosed to male Sprague Dawley rats (n=3) as described in Assay 5. […] At all time points, the plasma concentration was below the limit of quantitation of 0.001 μg/mL.

Cc1cc(Nc2cc3ncccc3c(N[C@@H]3C[C@H]4CC[C@@H](C3)N4CCC#N)n2)n[nH]1 [Example 1, 3-((1R,3s,5S)-3-((7-((5-methyl-1H-pyrazol-3-yl)amino)-1,6-naphthyridin-5-yl)amino)-8-azabicyclo[3.2.1]octan-8-yl)propanenitrile]
activity in the oxazolone-induced colitis model [1]: demonstrated activity
decrease in DAI score as compared with vehicle treated animals ([1]; PO, 1, 3, and/or 10 mg/kg BID (doses up to 10 mg/kg BID)): statistically significant decrease
splenic NK cell counts ([2]; PO BID doses up to 100 mg/kg): unaffected
treatment effect on B and T cell populations ([2]; PO BID): No treatment effect
oral bioavailability [3]: very low
exposure throughout the gastrointestinal tract vs exposure in plasma [4]: significantly higher exposure
